Experimental data reported in patent US8524809B2, “Low odor compositions and methods to attain low odor compositions” (Rohm and Haas Company, priority 2010, dated 2013).

Columns and labels:
[1] = target: T1, CALBL (Moesziomyces antarcticus, UniProt P41365); test: Small molecule inhibitors: EA content of latex containing CALBL; assay type: biochemical; details: for Inhibition of CALBL (in words): inhibitor 1.0%
T1 construct: purchased Novozymes, Bagsvaerd, Denmark Novozym CALB L
T1 sequence (P41365 26-342): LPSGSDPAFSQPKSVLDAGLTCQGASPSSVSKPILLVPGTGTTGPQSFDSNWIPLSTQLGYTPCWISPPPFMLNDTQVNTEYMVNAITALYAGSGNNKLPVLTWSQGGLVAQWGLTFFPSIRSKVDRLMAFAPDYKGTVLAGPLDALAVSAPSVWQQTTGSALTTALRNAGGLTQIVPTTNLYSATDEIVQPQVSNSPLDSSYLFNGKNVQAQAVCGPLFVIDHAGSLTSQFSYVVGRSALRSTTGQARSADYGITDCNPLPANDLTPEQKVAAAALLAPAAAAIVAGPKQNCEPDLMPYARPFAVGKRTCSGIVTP
Experimental: (§1) In another embodiment, deactivation of the carboxylesterase enzyme may be achieved by the addition of a small molecule inhibitor, as shown for CALBL and N51032 in Tables 13 and 14, below. […] The small molecule inhibitor and CALBL were added simultaneously at the time t=0. In the following tables, the potential small molecule inhibitors are as follows: […]

[2] = tested on: N51032; test: Small molecule inhibitors: EA content of latex containing N51032; assay type: biochemical
Experimental: as §1

[3] = Nucleophilic reagents: aldehyde content in vinyl acetate-acrylic latex; details: Rovace 9900 pre-treated 1 week with 50 ppm N51032; reagent 50 ppm, 55° C. 2 hours, then 1 week RT
Experimental: The latex samples were first treated with a carboxylesterase enzyme (50 ppm of N51032) for 1 week to remove residual esters and also to convert residual vinyl acetate to acetaldehyde (the esterase produces vinyl alcohol, which rearranges to form acetaldehyde). Each sample was then stirred at 55° C. for 2 hours with the reagent shown below in Table 26 (added at a level of 50 ppm), and then left at room temperature for 1 week before evaluating levels of aldehyde in the headspace composition (GC-MS, 33° C.).

[4] = Esterase and nucleophilic reagent, larger scale vinyl acetate-acrylic latex; details: VAc-acrylic latex, 50 ppm N51032 + 50 ppm reagent
Experimental: The combined effect of carboxylesterase (50 ppm N51032) and nucleophilic reagent (50 ppm in each case) was evaluated in a larger scale vinyl acetate-acrylic latex sample, Table 27, below. The combined addition was made into a 1 gallon reaction vessel, with stirring, after the polymer synthesis and chase, and while the contents were at 50° C. The contents were then allowed to cool and headspace concentrations were analyzed after 1 day at room temperature, and after 5 days at room temperature.

[5] = AC-261 latex, CALBL 60 ppm, inhibitor 1.0% added simultaneously (Control: none), 0 hr
[6] = AC-261 latex, CALBL 60 ppm, inhibitor 1.0% added simultaneously (Control: none), 24 hr
[7] = AC-261 latex, CALBL 60 ppm, inhibitor 1.0% added simultaneously (Control: none), 72 hr
[8] = AC-261 latex, CALBL 60 ppm, inhibitor 1.0% added simultaneously (Control: none), 168 hr
[9] = CALBL 6 ppm, inhibitor 0.001%, 0 hr
[10] = CALBL 6 ppm, inhibitor 0.001%, 120 hr
[11] = CALBL 6 ppm, inhibitor 0.001%, 168 hr
[12] = CALBL 6 ppm, inhibitor 0.001%, 384 hr
[13] = CALBL 6 ppm, inhibitor 0.001%, 480 hr
[14] = CALBL 6 ppm, inhibitor 0.01%, 0 hr
[15] = CALBL 6 ppm, inhibitor 0.01%, 120 hr
[16] = CALBL 6 ppm, inhibitor 0.01%, 168 hr
[17] = CALBL 6 ppm, inhibitor 0.01%, 384 hr
[18] = CALBL 6 ppm, inhibitor 0.01%, 480 hr
[19] = CALBL 6 ppm, inhibitor 0.1%, 0 hr
[20] = CALBL 6 ppm, inhibitor 0.1%, 120 hr
[21] = CALBL 6 ppm, inhibitor 0.1%, 168 hr
[22] = CALBL 6 ppm, inhibitor 0.1%, 384 hr
[23] = CALBL 6 ppm, inhibitor 0.1%, 480 hr
[24] = AC-261 latex, N51032 50 ppm, inhibitor 1% added simultaneously (Control: none), 0 hr
[25] = AC-261 latex, N51032 50 ppm, inhibitor 1% added simultaneously (Control: none), 24 hr
[26] = AC-261 latex, N51032 50 ppm, inhibitor 1% added simultaneously (Control: none), 72 hr
[27] = AC-261 latex, N51032 50 ppm, inhibitor 1% added simultaneously (Control: none), 168 hr
[28] = N51032 5 ppm, inhibitor 0.001%, 0 hr
[29] = N51032 5 ppm, inhibitor 0.001%, 120 hr
[30] = N51032 5 ppm, inhibitor 0.001%, 168 hr
[31] = N51032 5 ppm, inhibitor 0.001%, 384 hr
[32] = N51032 5 ppm, inhibitor 0.001%, 480 hr
[33] = N51032 5 ppm, inhibitor 0.01%, 0 hr
[34] = N51032 5 ppm, inhibitor 0.01%, 120 hr
[35] = N51032 5 ppm, inhibitor 0.01%, 168 hr
[36] = N51032 5 ppm, inhibitor 0.01%, 384 hr
[37] = N51032 5 ppm, inhibitor 0.01%, 480 hr
[38] = N51032 5 ppm, inhibitor 0.1%, 0 hr
[39] = N51032 5 ppm, inhibitor 0.1%, 120 hr
[40] = N51032 5 ppm, inhibitor 0.1%, 168 hr
[41] = N51032 5 ppm, inhibitor 0.1%, 384 hr
[42] = N51032 5 ppm, inhibitor 0.1%, 480 hr

CC(C)CB(O)O [2MPB, (2-methylpropyl) boronic acid]
EA content [1, 5]: 105 ppm | EA content [1, 6]: 95 ppm | EA content [1, 7]: 102 ppm | EA content [1, 8]: 104 ppm | EA content [1, 9]: 44 | EA content [1, 10]: 32 | EA content [1, 11]: 23 | EA content [1, 12]: 10 | EA content [1, 13]: 8 | EA content [1, 14]: 43 | EA content [1, 15]: 28 | EA content [1, 16]: 24 | EA content [1, 17]: 13 | EA content [1, 18]: 11 | EA content [1, 19]: 43 | EA content [1, 20]: 34 | EA content [1, 21]: 25 | EA content [1, 22]: 15 | EA content [1, 23]: 13 | Inhibition of CALBL (in words) ([1]; CALBL 60 ppm): effective in inhibiting the carboxylesterase enzyme | EA content [2, 24]: 117 ppm | EA content [2, 25]: 92 ppm | EA content [2, 26]: 99 ppm | EA content [2, 27]: 79 ppm | EA content [2, 28]: 42 ppm | EA content [2, 29]: 24 ppm | EA content [2, 30]: 22 ppm | EA content [2, 31]: 8 ppm | EA content [2, 32]: 6 ppm | EA content [2, 33]: 37 ppm | EA content [2, 34]: 25 ppm | EA content [2, 35]: 19 ppm | EA content [2, 36]: 6 ppm | EA content [2, 37]: 5 ppm | EA content [2, 38]: 43 ppm | EA content [2, 39]: 34 ppm | EA content [2, 40]: 27 ppm | EA content [2, 41]: 22 ppm | EA content [2, 42]: 20 ppm

Nc1ccc(CO)cc1 [4ABA, 4-aminobenzyl alcohol]
Acetaldehyde Headspace Concentration [3]: 151 ppm | Acetone Headspace Concentration [3]: 245 ppm | Ethanol Headspace Concentration [3]: 20 ppm | butanal Headspace Concentration [3]: 1 ppm | l-butanol Headspace Concentration [3]: 48 ppm | t-butanol Headspace Concentration [3]: 257 ppm

NNc1ccc(C(=O)O)cc1 [4HB, 4-hydrazino benzoic acid]
Acetaldehyde Headspace Concentration [3]: 14 ppm | Acetone Headspace Concentration [3]: 247 ppm | Ethanol Headspace Concentration [3]: 20 ppm | butanal Headspace Concentration [3]: 0 ppm | l-butanol Headspace Concentration [3]: 48 ppm | t-butanol Headspace Concentration [3]: 258 ppm

O=C1CC(=O)NC(=O)N1 [B, barbituric acid]
Acetaldehyde Headspace Concentration ([4]; 1 Day): 237 ppm | Acetone Headspace Concentration ([4]; 1 Day): 392 ppm | Butyl acetate Headspace Concentration ([4]; 1 Day): 1 ppm | Ethanol Headspace Concentration ([4]; 1 Day): 10 ppm | Vinyl acetate Headspace Concentration ([4]; 1 Day): 0 ppm | butanal Headspace Concentration ([4]; 1 Day): 0.4 ppm | l-butanol Headspace Concentration ([4]; 1 Day): 18 ppm | t-butanol Headspace Concentration ([4]; 1 Day): 265 ppm | Acetaldehyde Headspace Concentration ([4]; 5 Days): 140 ppm | Acetone Headspace Concentration ([4]; 5 Days): 418 ppm | Butyl acetate Headspace Concentration ([4]; 5 Days): 1 ppm | Ethanol Headspace Concentration ([4]; 5 Days): 23 ppm | Vinyl acetate Headspace Concentration ([4]; 5 Days): 0 ppm | butanal Headspace Concentration ([4]; 5 Days): 0.6 ppm | l-butanol Headspace Concentration ([4]; 5 Days): 21 ppm | t-butanol Headspace Concentration ([4]; 5 Days): 285 ppm | Acetaldehyde Headspace Concentration [3]: 0 ppm | Acetone Headspace Concentration [3]: 287 ppm | Ethanol Headspace Concentration [3]: 26 ppm | butanal Headspace Concentration [3]: 0 ppm | l-butanol Headspace Concentration [3]: 53 ppm | t-butanol Headspace Concentration [3]: 300 ppm

OB(O)C1CCCCC1 [CBA, cyclohexylboronic acid]
EA content [1, 5]: 102 ppm | EA content [1, 6]: 70 ppm | EA content [1, 7]: 55 ppm | EA content [1, 8]: 24 ppm | Inhibition of CALBL (in words) ([1]; CALBL 60 ppm): some ability to inhibit the CALBL enzyme | EA content [2, 24]: 117 ppm | EA content [2, 25]: 96 ppm | EA content [2, 26]: 109 ppm | EA content [2, 27]: 79 ppm

CC(C)(C)CB(O)O [NPB, Neopentylboronic acid]
EA content [1, 5]: 107 ppm | EA content [1, 6]: 21 ppm | EA content [1, 7]: 0 ppm | EA content [1, 8]: 0 ppm | Inhibition of CALBL (in words) ([1]; CALBL 60 ppm): completely ineffective as an inhibitor of CALBL | EA content [2, 24]: 116 ppm | EA content [2, 25]: 49 ppm | EA content [2, 26]: 30 ppm | EA content [2, 27]: 6 ppm

OB(O)c1ccccc1 [PBA, phenylboronic acid]
EA content [1, 5]: 108 ppm | EA content [1, 6]: 103 ppm | EA content [1, 7]: 116 ppm | EA content [1, 8]: 108 ppm | EA content [1, 9]: 48 | EA content [1, 10]: 30 | EA content [1, 11]: 25 | EA content [1, 12]: 11 | EA content [1, 13]: 9 | EA content [1, 14]: 44 | EA content [1, 15]: 32 | EA content [1, 16]: 26 | EA content [1, 17]: 15 | EA content [1, 18]: 15 | EA content [1, 19]: 39 | EA content [1, 20]: 35 | EA content [1, 21]: 35 | EA content [1, 22]: 29 | EA content [1, 23]: 29 | Inhibition of CALBL (in words) ([1]; CALBL 60 ppm): effective in inhibiting the carboxylesterase enzyme | EA content [2, 24]: 116 ppm | EA content [2, 25]: 116 ppm | EA content [2, 26]: 111 ppm | EA content [2, 27]: 117 ppm | EA content [2, 28]: 46 ppm | EA content [2, 29]: 36 ppm | EA content [2, 30]: 34 ppm | EA content [2, 31]: 22 ppm | EA content [2, 32]: 19 ppm | EA content [2, 33]: 45 ppm | EA content [2, 34]: 41 ppm | EA content [2, 35]: 39 ppm | EA content [2, 36]: 34 ppm | EA content [2, 37]: 34 ppm | EA content [2, 38]: 46 ppm | EA content [2, 39]: 34 ppm | EA content [2, 40]: 41 ppm | EA content [2, 41]: 38 ppm | EA content [2, 42]: 39 ppm | Inhibition of N51032 (in words) ([2]; inhibitor 1%, N51032 50 ppm): effective in inhibiting the carboxylesterase enzyme

Nc1ccc(N)cc1 [PPD, p-phenylene diamine]
Acetaldehyde Headspace Concentration [3]: 0 ppm | Acetone Headspace Concentration [3]: 279 ppm | Ethanol Headspace Concentration [3]: 25 ppm | butanal Headspace Concentration [3]: 0 ppm | l-butanol Headspace Concentration [3]: 58 ppm | t-butanol Headspace Concentration [3]: 304 ppm

CCCCCCCCCCS(=O)(=O)[O-].[Na+] [S-1-DS, Sodium 1-decane-sulfonate]
EA content [1, 5]: 114 ppm | EA content [1, 6]: 73 ppm | EA content [1, 7]: 36 ppm | EA content [1, 8]: 17 ppm | Inhibition of CALBL (in words) ([1]; CALBL 60 ppm): some ability to inhibit the CALBL enzyme | EA content [2, 24]: 115 ppm | EA content [2, 25]: 73 ppm | EA content [2, 26]: 79 ppm | EA content [2, 27]: 77 ppm

NCCNCCNCCN [TET, triethylene tetramine]
Acetaldehyde Headspace Concentration [3]: 42 ppm | Acetone Headspace Concentration [3]: 262 ppm | Ethanol Headspace Concentration [3]: 23 ppm | butanal Headspace Concentration [3]: 1 ppm | l-butanol Headspace Concentration [3]: 64 ppm | t-butanol Headspace Concentration [3]: 278 ppm
